Data: ChEMBL document CHEMBL1156829 (Proc Natl Acad Sci U S A, 2008)

Assays:
[1] = NOVARTIS: Cytotoxicity against human hepatocellular carcinoma cell line (Huh7); format: toxicity, cell-based, Huh-7; conditions: Huh7 cells (hepatocellular carcinoma cell line)
Plasmodium falciparum [2] = assay: NOVARTIS: Inhibition of Plasmodium falciparum W2 (drug-resistant) proliferation in erythrocyte-based infection assay; format: functional, organism-based; conditions: Plasmodium falciparum, W2; read-out: EC50
Plasmodium falciparum [3] = assay: NOVARTIS: Inhibition of Plasmodium falciparum 3D7 (drug-susceptible) proliferation in erythrocyte-based infection assay; format: functional, organism-based; conditions: Plasmodium falciparum, 3D7

COc1cc2nc(NCC3CCCO3)n3nc(-c4ccccc4)nc3c2cc1OC (configuration not stated)
CC50 [1]: > 100 µM
EC50 (Plasmodium falciparum [2]): 0.662 µM
EC50 (Plasmodium falciparum [3]): 0.293 µM

Cc1ccc(N(C(=O)c2snc(C(=O)NC3CCCCC3)c2N)C(C(=O)NCCc2ccccc2)c2ccc(O)cc2)c(C)c1 (configuration not stated)
CC50 [1]: > 100 µM
EC50 (Plasmodium falciparum [2]): 0.672 µM
EC50 (Plasmodium falciparum [3]): 1.48 µM

CCOC(=O)c1c(NC(=O)C(C)Sc2nnc(CNC(=O)c3ccco3)n2-c2cccc(C(F)(F)F)c2)sc2c1CCC2 (configuration not stated)
CC50 [1]: > 100 µM
EC50 (Plasmodium falciparum [2]): 0.649 µM
EC50 (Plasmodium falciparum [3]): > 12.5 µM

CN(CCCNc1ccnc2cc(Cl)ccc12)C(=O)C1CC1
CC50 [1]: > 7.25 µM
EC50 (Plasmodium falciparum [2]): 0.0467 µM
EC50 (Plasmodium falciparum [3]): 0.164 µM

N=c1n(Cc2ccccc2)c2ccccc2n1CC(O)c1ccc(Cl)c(Cl)c1 (configuration not stated)
CC50 [1]: 6.59 µM
EC50 (Plasmodium falciparum [2]): 0.0436 µM
EC50 (Plasmodium falciparum [3]): 0.214 µM

COc1cc(C(=O)NCCc2ccccn2)ccc1OC1CCN(CC(c2ccccc2)c2ccccc2)CC1
CC50 [1]: 13 µM
EC50 (Plasmodium falciparum [2]): 0.0864 µM
EC50 (Plasmodium falciparum [3]): 0.44 µM

COc1ccc(C=NNc2cc(C)nc3ccc(OC)cc23)c(OC)c1
CC50 [1]: 6.69 µM
EC50 (Plasmodium falciparum [2]): 0.0435 µM
EC50 (Plasmodium falciparum [3]): 0.0331 µM

Cn1nc(C(F)(F)F)c(-c2ccc(F)cc2)c1NC(=O)Nc1ccccc1
CC50 [1]: 54.3 µM
EC50 (Plasmodium falciparum [2]): 0.353 µM
EC50 (Plasmodium falciparum [3]): 0.392 µM

CN(C)CCNC(=O)c1cc2c(-c3ccc(Cl)cc3)nn(C)c2s1
CC50 [1]: 64.6 µM
EC50 (Plasmodium falciparum [2]): 0.422 µM
EC50 (Plasmodium falciparum [3]): 0.339 µM

Cc1c(C=O)c2ccccc2n1CC(=O)Nc1cccc(I)c1
CC50 [1]: > 61.2 µM
EC50 (Plasmodium falciparum [2]): 0.405 µM
EC50 (Plasmodium falciparum [3]): 0.365 µM

CN1CCN(c2nc(NN=Cc3cc(I)ccc3O)nc(Nc3ccc([N+](=O)[O-])cc3)n2)CC1
CC50 [1]: 47.7 µM
EC50 (Plasmodium falciparum [2]): 0.316 µM
EC50 (Plasmodium falciparum [3]): 0.383 µM

Fc1ccc(Nc2nc(NCc3ccccc3)c3ccccc3n2)cc1
CC50 [1]: 8.87 µM
EC50 (Plasmodium falciparum [2]): 0.0586 µM
EC50 (Plasmodium falciparum [3]): 0.0755 µM

CCCn1cc(SCC(=O)NCc2ccco2)c2ccccc21
CC50 [1]: > 100 µM
EC50 (Plasmodium falciparum [2]): 0.673 µM
EC50 (Plasmodium falciparum [3]): 1.02 µM

O=C(NCCCCNC(=O)Nc1cccc(C2=NCCN2)c1)Nc1cccc(C2=NCCN2)c1
CC50 [1]: > 10 µM
EC50 (Plasmodium falciparum [2]): 0.0672 µM
EC50 (Plasmodium falciparum [3]): 0.203 µM

CCOC(=O)C1=C(C)NC2=C(C(=O)C(C(=O)OCC)C(c3cccc(OC)c3)C2)C1c1ccc(Br)cc1 (configuration not stated)
CC50 [1]: > 100 µM
EC50 (Plasmodium falciparum [2]): 0.671 µM
EC50 (Plasmodium falciparum [3]): 2.17 µM

Oc1ccc(-c2cncnc2)cc1CNC1CCN(Cc2ccccc2)CC1
CC50 [1]: > 100 µM
EC50 (Plasmodium falciparum [2]): 0.671 µM
EC50 (Plasmodium falciparum [3]): 0.698 µM

CC(=O)c1cc(CN2CCC(C(=O)Nc3ccc(-n4nc(C)cc4C)cc3)CC2)cs1
CC50 [1]: > 100 µM
EC50 (Plasmodium falciparum [2]): 0.665 µM
EC50 (Plasmodium falciparum [3]): 0.969 µM

CN1CCc2c(sc3nc(SCc4ccccc4)n(-c4ccccc4)c(=O)c23)C1
CC50 [1]: > 100 µM
EC50 (Plasmodium falciparum [2]): 0.67 µM
EC50 (Plasmodium falciparum [3]): 1.77 µM

CN1CCN(c2nc(NN=Cc3cccc(Cl)c3)nc(Nc3ccc([N+](=O)[O-])cc3)n2)CC1
CC50 [1]: 43.4 µM
EC50 (Plasmodium falciparum [2]): 0.29 µM
EC50 (Plasmodium falciparum [3]): 0.5 µM

O=C(NCc1ccc2c(c1)OCO2)C1CNCC1c1ccc(C(F)(F)F)cc1 (configuration not stated)
CC50 [1]: 54.3 µM
EC50 (Plasmodium falciparum [2]): 0.362 µM
EC50 (Plasmodium falciparum [3]): 0.325 µM

Brc1ccc(/C=C/c2cc[n+](Cc3ccccc3)cc2)cc1
CC50 [1]: > 10 µM
EC50 (Plasmodium falciparum [2]): 0.0666 µM
EC50 (Plasmodium falciparum [3]): 0.112 µM

CCc1ccc2[nH]c(=O)c(CN(CCCN(CC)CC)C(=S)NCCCN(C)C)cc2c1
CC50 [1]: > 100 µM
EC50 (Plasmodium falciparum [2]): 0.664 µM
EC50 (Plasmodium falciparum [3]): 2.04 µM

Cc1ccc(N=Nc2nc3ccccc3n2C)c(C)c1
CC50 [1]: 3.6 µM
EC50 (Plasmodium falciparum [2]): 0.0241 µM
EC50 (Plasmodium falciparum [3]): 0.0875 µM

CC1=CC(=C(C#N)c2nc3ccccc3s2)C=C(C)N1CC1CCCO1 (configuration not stated)
CC50 [1]: > 100 µM
EC50 (Plasmodium falciparum [2]): 0.67 µM
EC50 (Plasmodium falciparum [3]): 0.411 µM

O=c1c2c([nH]c3cc(Cl)ccc13)CCCC2
CC50 [1]: > 100 µM
EC50 (Plasmodium falciparum [2]): 0.649 µM
EC50 (Plasmodium falciparum [3]): 0.333 µM

CN(CCCNc1ccnc2cc(Cl)ccc12)C(=O)C(Cl)Cl
CC50 [1]: > 14.1 µM
EC50 (Plasmodium falciparum [2]): 0.0914 µM
EC50 (Plasmodium falciparum [3]): 0.0286 µM

CC1=C(C(=O)OC2CCCCC2)C(c2ccc(F)cc2)C2=C(CC(c3ccccc3)CC2=O)N1 (configuration not stated)
CC50 [1]: > 100 µM
EC50 (Plasmodium falciparum [2]): 0.653 µM
EC50 (Plasmodium falciparum [3]): 3.69 µM

COc1ccc(C=CC(=O)NC(=O)c2ccccc2O)cc1
CC50 [1]: > 73.5 µM
EC50 (Plasmodium falciparum [2]): 0.479 µM
EC50 (Plasmodium falciparum [3]): 0.132 µM

Cc1c2c(cc3c1ccc1ccccc13)C[N+]1(CCCCC1)C2
CC50 [1]: > 100 µM
EC50 (Plasmodium falciparum [2]): 0.657 µM
EC50 (Plasmodium falciparum [3]): 1.29 µM

N#CC(=Cc1cn(Cc2ccccc2Cl)c2ccccc12)c1nn(CCO)c(N)c1C#N
CC50 [1]: 44.8 µM
EC50 (Plasmodium falciparum [2]): 0.294 µM
EC50 (Plasmodium falciparum [3]): 0.273 µM

CCOc1ccc(CCNC(=O)Nc2ccc(F)cc2)cc1OCC
CC50 [1]: > 74.7 µM
EC50 (Plasmodium falciparum [2]): 0.492 µM
EC50 (Plasmodium falciparum [3]): 0.751 µM

CC(C)CN1CCC(O)(c2ccc3oc(C(=O)Nc4ccc5c(c4)OCO5)cc3c2)CC1
CC50 [1]: 55.2 µM
EC50 (Plasmodium falciparum [2]): 0.363 µM
EC50 (Plasmodium falciparum [3]): 1.08 µM

O=C(Nc1ccccc1[N+](=O)[O-])C1CC1(c1ccccc1)c1ccccc1 (configuration not stated)
CC50 [1]: > 100 µM
EC50 (Plasmodium falciparum [2]): 0.647 µM
EC50 (Plasmodium falciparum [3]): > 12.5 µM

COc1ccc(C2CC(=O)C3=C(C2)NC(C)=C(C(=O)OC2CCCC2)C3c2ccc(OC)cc2)cc1 (configuration not stated)
CC50 [1]: > 100 µM
EC50 (Plasmodium falciparum [2]): 0.649 µM
EC50 (Plasmodium falciparum [3]): 3.26 µM

COc1ccc(C2Nc3ccc4ccccc4c3C3=C2C(=O)CC(C)(C)C3)cc1Br (configuration not stated)
CC50 [1]: > 100 µM
EC50 (Plasmodium falciparum [2]): 0.649 µM
EC50 (Plasmodium falciparum [3]): 3.19 µM

Cc1ccc[n+](C(C)C(=O)c2ccc(-c3ccccc3)cc2)c1 (configuration not stated)
CC50 [1]: > 100 µM
EC50 (Plasmodium falciparum [2]): 0.649 µM
EC50 (Plasmodium falciparum [3]): 1.61 µM

COc1ccc(C(=O)ON=C(N)Cc2ccc(Cl)cc2Cl)cc1[N+](=O)[O-]
CC50 [1]: > 100 µM
EC50 (Plasmodium falciparum [2]): 0.675 µM
EC50 (Plasmodium falciparum [3]): 4.98 µM

CC(NC(=O)C(=O)N1CCCCC1)C(c1cccs1)N1CCOCC1 (configuration not stated)
CC50 [1]: > 100 µM
EC50 (Plasmodium falciparum [2]): 0.675 µM
EC50 (Plasmodium falciparum [3]): > 1.69 µM

CCOC(=O)c1cnc2c(C)cc(C)cc2c1Nc1ccc(C(C)=O)cc1
CC50 [1]: > 100 µM
EC50 (Plasmodium falciparum [2]): 0.675 µM
EC50 (Plasmodium falciparum [3]): 0.749 µM

Cc1cc(Nc2ccc(Cl)c(Cl)c2)n2ncnc2n1
CC50 [1]: > 100 µM
EC50 (Plasmodium falciparum [2]): 0.674 µM
EC50 (Plasmodium falciparum [3]): 1.68 µM

COc1ccc(Cl)cc1NC(=S)NNC(=O)c1cccnc1
CC50 [1]: > 100 µM
EC50 (Plasmodium falciparum [2]): 0.664 µM
EC50 (Plasmodium falciparum [3]): 0.536 µM

O=C(Nc1ccc(-n2cnnn2)cc1)C1CCN(Cc2cc3ccccc3o2)CC1
CC50 [1]: > 61.9 µM
EC50 (Plasmodium falciparum [2]): 0.416 µM
EC50 (Plasmodium falciparum [3]): 0.198 µM

O=c1c2c([nH]c3ccccc13)CCCCCCCCCC2
CC50 [1]: > 100 µM
EC50 (Plasmodium falciparum [2]): 0.671 µM
EC50 (Plasmodium falciparum [3]): 0.277 µM

Clc1ccc(-c2c[n+](Cc3ccc(Cl)c(Cl)c3)c3n2CCC3)cc1
CC50 [1]: > 93.6 µM
EC50 (Plasmodium falciparum [2]): 0.623 µM
EC50 (Plasmodium falciparum [3]): 0.446 µM

OC1CCCCC1C1(NC(=S)Nc2ccccc2)CCCCC1 (configuration not stated)
CC50 [1]: 22.8 µM
EC50 (Plasmodium falciparum [2]): 0.153 µM
EC50 (Plasmodium falciparum [3]): 0.211 µM

CCN1CCCC1CNc1ncnc2c1[nH]c1ccc(C)cc12 (configuration not stated)
CC50 [1]: 21 µM
EC50 (Plasmodium falciparum [2]): 0.138 µM
EC50 (Plasmodium falciparum [3]): 0.269 µM

Cn1ccnc1C1CCCCN1C(=O)c1cc(COc2ccc(F)cc2Cl)on1 (configuration not stated)
CC50 [1]: > 100 µM
EC50 (Plasmodium falciparum [2]): 0.673 µM
EC50 (Plasmodium falciparum [3]): 1.83 µM

CCCN(CCC)C(=O)Cn1ccc(=N)c2ccccc21
CC50 [1]: > 100 µM
EC50 (Plasmodium falciparum [2]): 0.671 µM
EC50 (Plasmodium falciparum [3]): 1.2 µM

CC1=C(C(=O)OCC(C)C)C(c2ccc(OCc3ccccc3)cc2)C2=C(CC(c3ccccc3)CC2=O)N1 (configuration not stated)
CC50 [1]: > 100 µM
EC50 (Plasmodium falciparum [2]): 0.659 µM
EC50 (Plasmodium falciparum [3]): 0.961 µM

Cc1ccc(C(=O)Oc2ccccc2-c2nc3ccccn3c2NC(C)(C)CC(C)(C)C)cc1[N+](=O)[O-]
CC50 [1]: > 10 µM
EC50 (Plasmodium falciparum [2]): 0.0675 µM
EC50 (Plasmodium falciparum [3]): 1.24 µM

O=C(O)c1ccc2c(c1)N=C(c1ccccc1)N(Cc1cccnc1)C2
CC50 [1]: > 10 µM
EC50 (Plasmodium falciparum [2]): 0.0657 µM
EC50 (Plasmodium falciparum [3]): 0.476 µM

CCCCCOC(=O)C1=C(C)NC2=C(C(=O)CCC2)C1c1ccc(OC)c(Br)c1 (configuration not stated)
CC50 [1]: > 100 µM
EC50 (Plasmodium falciparum [2]): 0.65 µM
EC50 (Plasmodium falciparum [3]): 0.615 µM

COc1cc2c(-c3cc(Br)ccc3O)nc3c(c(-c4ccccc4)nn3-c3ccccc3)c2cc1OC
CC50 [1]: > 100 µM
EC50 (Plasmodium falciparum [2]): 0.655 µM
EC50 (Plasmodium falciparum [3]): 1.15 µM

N#Cc1ccc(N2CCN(C(=O)c3ccc(F)cc3Cl)CC2)cc1
CC50 [1]: > 10 µM
EC50 (Plasmodium falciparum [2]): 0.0675 µM
EC50 (Plasmodium falciparum [3]): 0.155 µM
